Row | SMILES | melting point
1 | O=C(N[C@H]1CCCC[C@H]1C(=O)O)OCc1ccccc1 (relative stereo) | 130 to 136 °C
2 | ClCc1ccc(Cl)c(Cl)c1 | 37.5 °C
3 | COC(=O)[C@H](Cc1ccccc1)N=C=S | 34 to 36 °C
4 | COc1ccccc1/C=C(\C#N)c1nc2ccccc2s1 | 158 °C
5 | NC1c2ccccc2CC1O (centres undefined) | 117 to 121 °C
6 | CC12CCC3C(CCC4CC=CCC43C)C1CC=C2CCc1ccccc1 (centres undefined) | 118 °C
7 | COc1ccc(C(=S)Nc2ccccc2)cc1 | 157 °C
8 | C1COC1 | -97 °C
9 | NC(c1ccccc1)c1ccccc1 | 34 °C
10 | CC(C)(C)C(=O)C(Oc1ccc(Cl)cc1)n1cncn1 (centres undefined) | 82.3 °C
11 | Nc1ccc2ccccc2c1S(=O)(=O)O | 180 °C
12 | CCOC(=O)C1=C(COCCN)NC(C)=C(C(=O)OC)C1c1ccccc1Cl (centres undefined) | 178 °C
13 | Clc1ccc(-c2c(Cl)cc(Cl)c(Cl)c2Cl)c(Cl)c1 | 73 °C
14 | ClC1=C(Cl)C(Cl)(C2(Cl)C(Cl)=C(Cl)C(Cl)=C2Cl)C(Cl)=C1Cl | 122 °C
15 | CCOO | -100 °C
16 | O=S(=O)(Oc1ccccc1)c1ccccc1C=Cc1ccccc1S(=O)(=O)Oc1ccccc1 | 180 °C
17 | CC(=O)c1c(O)c(C)c(O)c(Cc2c(O)c3c(c(C(=O)C=Cc4ccccc4)c2O)OC(C)(C)C=C3)c1O | 212 °C
18 | C(C=C(c1ccccc1)c1ccccc1)=C(c1ccccc1)c1ccccc1 | 198 °C
19 | O=Cc1csnn1 | 85 to 87 °C
20 | N#CC=P(c1ccccc1)(c1ccccc1)c1ccccc1 | 189 to 198 °C
21 | CC(=O)Nc1ccc(N=Nc2ccc(N)cc2)cc1 | 212 °C
22 | CC(C)(C)C(=O)C=Cc1ccccc1 | 43 °C
23 | O=C(Oc1c(F)c(F)c(F)c(F)c1F)Oc1c(F)c(F)c(F)c(F)c1F | 48 to 51 °C
24 | CCCCCc1ccc(OC(=O)c2ccc(OC(=O)c3ccc(CCCCC)cc3)cc2Cl)cc1 | 39 to 122 °C
25 | C=CCOc1ccc(CC(=O)O)cc1Cl | 92 °C
26 | CCOC(=O)Cc1cccc2ccccc12 | 88.5 °C

Row | SMILES | melting point
27 | Cc1cc(C)c(-c2cc(C)[nH]n2)c(C)c1 | 128 to 130 °C
28 | C/C=C/c1ccccc1C(=O)O | 81 to 86 °C
29 | O=C=Nc1cc([N+](=O)[O-])ccc1Cl | 94 °C
30 | CCOC(=O)c1cnc2ccc(OC(F)(F)F)cc2c1O | 297 to 305 °C
31 | CCCCCCCCCCCC(=O)N(C)CC(=O)O | 44 to 48 °C
32 | O=C(O)Cc1ccccc1F | 63 °C
33 | CC(C)(C)SC1(C#N)CC1(C#N)SC(C)(C)C (centres undefined) | 104 °C
34 | COC(=O)c1ccc(S(=O)(=O)Cl)n1C | 79 to 81 °C
35 | COc1cc(O)cc(O)c1 | 80.3 °C
36 | Cc1nn(C)c2ncc(C(=O)O)c(Cl)c12 | 269 °C
37 | ClC=C(Cl)C(Cl)=CCl | -4 °C
38 | CCC(C(=O)NC(N)=O)c1ccccc1 (centres undefined) | 162 °C
39 | CC(C)Oc1cccc(OC(C)C)c1-c1ccccc1P(C1CCCCC1)C1CCCCC1 | 124 °C
40 | NC(=O)c1cccc(C(N)=O)c1 | 280 °C
41 | CC(=O)OC1CC2(C)C(CC(O)C3C4(C)CCC(O)C(C)C4CCC32C)C1=C(CCC=C(C)C)C(=O)O (centres undefined) | 192 °C
42 | C#CC1(O)CCC2(C)C(CCC3C2CCC2(C)C3CCC2(C)O)C1 (centres undefined) | 190 °C
43 | N[C@@H](Cc1cc(I)c(O)c(I)c1)C(=O)O | 213 °C
44 | NNC(=O)c1cccc(O)c1 | 158 °C
45 | OCc1ccc(I)cc1 | 73 °C
46 | FC1CCCCC1 | 13 °C
47 | CCC(=O)c1ccc(OCc2ccccc2)cc1 | 100 °C
48 | Cc1ccccc1CS(=O)(=O)Cl | 52 to 53 °C
49 | O=C(O)CS | -11 °C
50 | CCN(CC)C(=S)SC(=S)N(CC)CC | 31 °C
51 | C=C(C)CCCCCCCCCCCCCC | 2 °C
52 | C=CC(=O)OCCCCCC | -45 °C

Row | SMILES | melting point
53 | O=C1c2ccccc2C(=O)c2c([N+](=O)[O-])ccc(O)c21 | 273 to 275 °C
54 | Cc1ccc(O[C@H]2CC[C@@]3(C)C(=CC[C@H]4[C@@H]5CC[C@H]([C@H](C)CCCC(C)C)[C@@]5(C)CC[C@@H]43)C2)cc1 | 148 °C
55 | Cc1cccc(NC(=O)C(C(F)(F)F)C(F)(F)F)c1 | 175 °C
56 | CC(=O)Nc1ccccc1C(=O)c1ccccc1 | 88 °C
57 | CNCc1ccc(-c2cccs2)nc1 | 65.5 to 66.5 °C
58 | Cc1c(C(=O)O)nnn1Cc1ccc(Br)cc1 | 192 to 193 °C
59 | CCc1ccc(CCl)cc1 | -21 °C
60 | CCNc1nsc2ccccc12 | 78 °C
61 | O=Cc1cc(Cl)cc(Br)c1O | 86 °C
62 | COC(=O)c1cc(I)cc(C(=O)OC)c1 | 105 to 107 °C
63 | O=C1NCCN1 | 131 °C
64 | CC(=O)C1(O)C(O)CC2C3CCC4=CC(=O)CCC4(C)C3CCC21C (centres undefined) | 225 °C
65 | NC(=S)Nc1ccc(F)c(F)c1F | 162 to 165 °C
66 | COc1cc(CCC(=O)O)ccc1O | 90 °C
67 | O=[N+]([O-])c1ccc(-c2nnc3n2NC(c2ccco2)S3)cc1 (centres undefined) | 210 °C
68 | BrCc1cccc(-n2cccc2)c1 | 54 to 55 °C
69 | O=C(O)C(F)(F)C(F)(F)C(F)(F)C(F)(F)C(F)(F)C(F)(F)C(F)(F)C(F)(F)C(F)(F)C(F)(F)C(F)(F)C(F)(F)C(F)(F)F | 130 °C
70 | O=C1C=CC(=Nc2ccc(O)cc2)C=C1 | 160 °C
71 | O=C(O)c1cc(-c2ccc(-c3cc(C(=O)O)c4ccccc4n3)cc2)nc2ccccc12 | > 315 °C
72 | O=C1OC(c2ccccc2)=NC1=Cc1cc([N+](=O)[O-])ccc1O | 231 to 232 °C
73 | CCCCOC(=O)c1ccccc1 | -22.4 °C
74 | O=Cc1ccc(-n2cccn2)cc1 | 82 to 83 °C
75 | CC1(C)OC2(C)CCC1C(=O)OC2(C)C (centres undefined) | 78 °C
76 | Nc1ncnc2[nH]nnc12 | > 300 °C
77 | CC(=NNC(N)=O)c1cccc(C(C)=NNC(N)=O)c1 | 238 °C
78 | O=[N+]([O-])c1cc(S(=O)(=O)Cl)sc1Cl | 53 °C

Row | SMILES | melting point
79 | CCCCCCCCCCCCCCCCCCCCCCCCCCCCCCO | 88 °C
80 | C=CCC1=C(O)C2=CC=C3C(C)=C(C)C(=O)CC3(C)C2=C(O)C1=O (centres undefined) | 171 °C
81 | COc1ccc(C=Nn2c(S)nnc2CCn2c(C)nc3ccccc32)cc1 | 262 °C
82 | Cc1cc(C(N)=S)no1 | 169 to 172 °C
83 | Nc1ccc(O)c2c1C(=O)c1c(O)ccc(N)c1C2=O | 300 °C
84 | Cc1ccc(Cl)c(Nc2ccccc2C(=O)O)c1Cl | 257 °C
85 | Cc1cc(C(C)(C)C)c(O)c(C(C)(C)C)c1 | 71 °C
86 | Nc1csc2nccnc12 | 88 to 89 °C
87 | CC(C)(O)CCc1ccccc1O | 114 to 116 °C
88 | CCOC(=O)c1ccncc1 | 23 °C
89 | O=C(CO)[C@@H](O)[C@@H](O)[C@H](O)[C@H](O)CO | 151 °C
90 | Cc1nc(CCl)c(C)o1 | 34 to 37 °C
91 | O=C(Nc1ccccc1)c1cccc2c(Br)cccc12 | 217 °C
92 | O=C1OC(=O)C23CC4=C(CC=CC4)CC12CC1=C(CC=CC1)C3 (centres undefined) | 220 to 247 °C
93 | CC(=O)Oc1ccccc1C(=O)OCC(=O)N(C)CC(N)=O | 132 °C
94 | O=S(=O)(Cl)c1cccc(S(=O)(=O)Cl)c1 | 59 °C
95 | O=C(c1ccccc1)N1CCCCC1 | 49 °C
96 | CC(C)c1nc2ccccc2[nH]1 | 235 °C
97 | CCOc1ncnc2c1cnn2-c1ccccc1 | 94 to 96 °C
98 | CCCCCCCCC=CCCCCCCCCOC(=O)OC1CCC2(C)C(=CCC3C2CCC2(C)C(C(C)CCCC(C)C)CCC32)C1 (centres undefined) | 20 °C
99 | Cn1c(=O)c2c(ncn2CCO)n(C)c1=O | 158 °C
100 | CC/C=C/C(=O)O | 9 °C
101 | COc1cc(C=C2SC(=S)N(CNc3cccc([N+](=O)[O-])c3)C2=O)ccc1O | 214 to 215 °C
102 | CCCC#CCCCC(=O)O | -3 °C
103 | O=[N+]([O-])CCc1ccccc1 | -23 °C
104 | C/C(=N\CCN)c1c(O)c2ccccc2n(-c2ccccc2)c1=O | > 300 °C

Row | SMILES | melting point
105 | Cc1nc([N+](=O)[O-])c(Br)[nH]1 | 256 to 257 °C
106 | O=C(O)C1CC1C(=O)Nc1ccc(Cl)cc1Cl (centres undefined) | 196 °C
107 | Oc1ccc(-c2nnc3n2NC(c2ccccc2O)S3)cc1 (centres undefined) | 241 °C
108 | Nc1ccc(Cl)cn1 | 137 °C
109 | Cc1cc(N)c(N)cc1Cl | 137 to 140 °C
110 | COC(OC)(C(=O)c1ccccc1)c1ccccc1 | 66 °C
111 | COC1=CC(=O)OC(C=Cc2ccccc2)C1 (centres undefined) | 106 °C
112 | O=C1CCCCCCCCCCCN1 | 152 °C
113 | CCC1C(=O)OCC1Cc1cncn1C (centres undefined) | 34 °C
114 | C#CC1(O)CCC2C3CCC4=CC(=O)CCC4(C)C3CCC21C (centres undefined) | 269 °C
115 | CC(=C\OC(=O)c1ccccc1)/C(C)=N/OC(=O)c1ccccc1 | 231 to 232 °C
116 | NNC(=O)c1ccc(Cl)cc1Cl | 169 °C
117 | Nc1ccccc1C(=O)c1ccccc1 | 107 °C
118 | O=S(=O)(c1ccc(Cl)cc1)n1cccc1 | 116 to 118 °C
119 | CC12CCC(C=CC1=O)C2(C)C (centres undefined) | 174 °C
120 | Cn1nccc1-c1cccc(C(=O)O)c1 | 138 to 140 °C
121 | FC(F)(F)c1cc(Cl)ccc1I | 29 to 31 °C
122 | C=CC(OC(C)=O)OC(C)=O | -37.6 °C
123 | CCS(N)(=O)=O | 60 °C
124 | CC(C)N1CSc2nnc(-c3ccccc3)n2C1 | 225 to 226 °C
125 | Sc1nc2cccnc2s1 | 300 °C
126 | NCS(=O)(=O)O | 180 to 185 °C
127 | O=C(O)c1cccc(O)c1[N+](=O)[O-] | 179 °C
128 | O=C1OC(c2ccccc2)=NC1=Cc1cccs1 | 167 °C
129 | CCOC(=O)Nc1ccccc1 | 47 to 51 °C

Reference: a melting point compilation (Tetko et al.)
